The source made the active and inactive calls.
Assays:
[1] = growth inhibition of yeast DHODH-expressing 3D7 parasites – SYBR Green, dry powder samples, dose response (AID 1159570); assay type: functional, cell-based;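 further: parasite growth measured after 72 hours of compound exposure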
[2] = toxicity to human HepG2 hepatoma cells – cell-based, plate reader, dry powder samples, cytotoxicity control, dose response (AID 1159569); assay type: functional;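 further: inhibitor potency with signal falling toward the positive control level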
[3] = P. falciparum Dd2 growth inhibitors, dose response, SYBR Green, cherry-picked samples (AID 1159567); assay type: functional, cell-based
[4] = Dd2 malaria parasite growth inhibition potency – SYBR Green, dry powder samples, dose response (AID 1159566); assay type: functional, cell-based;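 further: potency for growth inhibition with lower SYBR green DNA signal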
[5] = growth inhibition of PfATP4-mutant resistant parasites – NITD609-resistant line, SYBR Green, dry powder, dose response (AID 1159571); assay type: functional, cell-based;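 further: parasites synchronized at ring stage by sorbitol before testing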
[6] = glucagon-like peptide-1 release potency in STC-1, concentration-response, half-maximal inhibitory concentration in the STC-1 line (AID 1117345); assay type: functional, cell-based
[7] = Potency on glucagon-like peptide 1 release, dose-response in NCI-H716 cell line, half maximal inhibitory concentration (AID 1117344); assay type: functional, cell-based
[8] = molecular target: T1, Ubiquitin-conjugating enzyme E2 N (Homo sapiens, UniProt P61088); assay type: functional;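 further: Dose-response confirmation in a TR-FRET assay detecting UBC13-driven polyubiquitin chain formation, inhibition measured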
T1 sequence (P61088 whole entry): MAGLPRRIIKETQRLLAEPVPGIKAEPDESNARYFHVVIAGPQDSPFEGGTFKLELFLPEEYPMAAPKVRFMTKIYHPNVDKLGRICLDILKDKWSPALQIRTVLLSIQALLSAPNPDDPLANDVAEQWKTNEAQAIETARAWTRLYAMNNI

Compound	AC50 [1]	AC50 [2]	AC50 [3]	AC50 [4]	AC50 [5]	IC50 [6]	IC50 [7]	IC50 [8]
CC(C)(C)[S@+]([O-])N1Cc2cc(C(=O)NCCN3CCCCC3)nc(-c3cccc(-c4cccc(C#N)c4)c3)c2[C@@H]1CCO	629 nM (active)	91.7 µM (active)	606 nM (active)	643 nM (active)	1.8 µM (active)			
O=C(Nc1ccc(S(=O)(=O)N2CCOCC2)cc1)c1cc(Cl)ccc1NS(=O)(=O)c1ccc(Cl)s1						> 40 µM (inactive)	> 40 µM (inactive)	
CN(C(=O)CN(CCO)CC(=O)N(C)C(C)(C)Cc1ccccc1)C(C)(C)Cc1ccccc1 [OXETHAZAINE]						> 40 µM (inactive)	25.1 µM (inactive)	> 20 µM (inactive)
O=C(c1cccnc1)N1CC(=O)N2[C@H](C1)[C@@H](c1ccc(-c3cccnc3)cc1)[C@@H]2CO	938 nM (active)	> 100 µM (inactive)	497 nM (active)	553 nM (active)	0.693 µM (active)			

Source: ChEMBL document CHEMBL1201862, “PubChem BioAssay data set” (2004)
